# Data taken from PMC12259270, “Sensory neuron–expressed FGF13 controls nociceptive signaling in diabetic neuropathy models” (The Journal of Clinical Investigation, 2025).
# Residues, ends and D or L forms follow the SMILES beside them. *: point of attachment. Cbz = O=C(OCc1ccccc1)*; OtBu = CC(C)(C)O*
# System: C57BL/6 mice
# Experiment: Capsaicin-induced thermal hypersensitivity (Hargreaves)
# Format: in vivo, mouse
# Excerpt: FGF13 is a neuronal gene ubiquitously transcribed in DRG neuronal subtypes ([43]–[46]). To investigate neuronal subtype enrichment of the FGF13 transcript, we examined a gene panel including FGF13, SCN9A, and several marker genes in mouse single-cell transcriptomic data (Supplemental Figure 10) ([43]–[46]). […] Critically, putative silent nociceptors marked by somatostatin (SST), and the nicotinic cholinergic receptor α-3 subunit (CHRNA3) contribute to development of inflammatory mechanical hyperalgesia ([47]). […] We next determined if PW164 modulation of the FGF13/Nav1.7 complex could suppress nociceptive behaviors in WT mice. We tested whether intraplantar (i.pl.) injection (5 μL) of PW164 altered hind paw withdrawal in response to low or high intensity von Frey filament (LVF or HVF, respectively) mechanical stimulation (Figure 3A). […] Next, we evaluated PW164’s effect on mechanical and thermal hindpaw sensitivity in capsaicin-induced nociceptive hypersensitivity models. […] Next, we performed in vivo target validation in WT mice that received an intrathecal (i.t.) injection in L5 of AAV2-shFGF13 (6 μL, viral titers 1 × 10^12 vector genomes (vg)/mL); a control group received an equal number of AAV2-shCTRL particles (Figure 3C).
# Experiments were performed on 6- to 12-week-old male C57BL/6 mice (The Jackson Laboratory, Bar Harbor, ME) housed in the AAALAC-accredited facility at the University of Texas Medical Branch. Mice were group-housed with up to 5 mice per cage on a 12-to-12-hour light–dark cycle and had access to water and food ad libitum. All protocols were approved by the Institutional Animal Care and Use Committee (IACUC) at the University of Texas Medical Branch and in accordance with the National Institutes of Health (NIH) guidelines.
# PW164 and ZL192 were dissolved in DMSO and saline in a ratio of 1:10. 0.1% capsaicin (10% ethanol, 10% Tween-20 in saline; Sigma-Aldrich). All the compounds were injected at the center of the hind paw. The control group received a DMSO-saline mixture. […]
# AAV2 viral particles packaged by the University of North Carolina Gene Therapy Core Facility (viral titer ranging […]
# Before intrathecal injections in the lumbar region, mice were maintained in an anesthetizing box with 2% isoflurane to induce unconsciousness. Six microliters of viral vector were gently injected into the CSF through a 30-gauge needle with a Hamilton syringe in the lumbar area between vertebrae L4 and L5 by gently gripping the iliac crest of the mouse and inserting the needle with an angle of 45°. The correct procedure was confirmed by the mouse’s tail reflexiv e flick. […]
compound,measurement,setting,value
COC(=O)[C@@H](NC(=O)[C@H](CCC(=O)OC(C)(C)C)NC(=O)[C@H](CC(C)C)NC(=O)[C@@H]1CCCN1C(=O)OCc1ccccc1)C(C)C [PW164] (Cbz-PLE(OtBu)V-OMe),thermal sensitivity in AAV2-shFGF13 mice after capsaicin,"PW164 5 μL, 0.7mg/mL hind paw",did not further modify
same,capsaicin-induced thermal sensitivity,"PW164 at the capsaicin injection site, 30 minutes post-capsaicin",inhibited
